US10913727B2, “Modulators of the integrated stress pathway” (Calico Life Sciences LLC, priority 2016, dated 2021)
pEC50: −log10 of the molar value.

System: HEK293T cells carrying the ATF4 luciferase reporter
Assay: ATF4-Luc assay, in vitro model of Vanishing Cell White Matter Disease (VWMD)
Format: cell-based
Details: Homo sapiens, HEK-293T, 1 μg/mL tunicamycin, 7 hours, One Glo luminescence
How it was run: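 Stable HEK293T line with human ATF4 5′-UTR–firefly luciferase reporter treated with 1 μg/mL tunicamycin plus 200 nM compound for 7 h. Luminescence read; EC50 derived.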

Structure (SMILES) | pEC50
O=C(COc1ccc(Cl)c(F)c1)NC12CC(NC(=O)c3cnn(C(F)F)c3)(C1)C2 [Compound 724, N-{3-[2-(4-chloro-3-fluorophenoxy)acetamido]bicyclo[1.1.1]pentan-1-yl}-1-(difluoromethyl)-1H-pyrazole-4-carboxamide] | 6.00 to 6.60
O=C(COc1ccc(Cl)c(F)c1)NC12CC(Nc3cnccn3)(C1)C2 [Compound 725, 2-(4-chloro-3-fluorophenoxy)-N-{3-[(pyrazin-2-yl)amino]bicyclo[1.1.1]pentan-1-yl}acetamide] | 5.70 to 6.00
O=C(COc1ccc(Cl)c(F)c1)NC12CCC(NC(=O)c3ccccn3)(CC1)C[C@@H]2O [Compound 727, N-{(3S)-4-[2-(4-chloro-3-fluorophenoxy)acetamido]-3-hydroxybicyclo[2.2.2]octan-1-yl}pyridine-2-carboxamide] | > 7.30
O=C(COc1ccc(Cl)c(F)c1)NC12CCC(NC(=O)c3ccc(C(F)(F)F)cn3)(CC1)C[C@@H]2O [Compound 728, N-{(3S)-4-[2-(4-chloro-3-fluorophenoxy)acetamido]-3-hydroxybicyclo[2.2.2]octan-1-yl}-5-(trifluoromethyl)pyridine-2-carboxamide] | > 7.30
Cc1ccc(C(=O)NC23CCC(NC(=O)COc4ccc(Cl)c(F)c4)(CC2)[C@@H](O)C3)nc1 [Compound 729, N-{(3S)-4-[2-(4-chloro-3-fluorophenoxy)acetamido]-3-hydroxybicyclo[2.2.2]octan-1-yl}-5-methylpyridine-2-carboxamide] | > 7.30
O=C(COc1ccc(Cl)c(F)c1)NC12CCC(NC(=O)c3ccc(Cl)cn3)(CC1)C[C@@H]2O [Compound 730, 5-chloro-N-{(3S)-4-[2-(4-chloro-3-fluorophenoxy)acetamido]-3-hydroxybicyclo[2.2.2]octan-1-yl}pyridine-2-carboxamide] | 6.60 to 7.30
O=C(COc1ccc(F)c(F)c1)NC12CC(Nc3cnc(-c4cccnc4)cn3)(C1)C2 [Compound 731, 2-(3,4-difluorophenoxy)-N-(3-{[5-(pyridin-3-yl)pyrazin-2-yl]amino}bicyclo[1.1.1]pentan-1-yl)acetamide] | 5.70 to 6.00
O=C(COc1ccc(Cl)c(F)c1)NC12CCC(NC(=O)c3cnccn3)(CC1)[C@@H](O)C2 [Compound 732, N-{(2S)-4-[2-(4-chloro-3-fluorophenoxy)acetamido]-2-hydroxybicyclo[2.2.2]octan-1-yl}pyrazine-2-carboxamide] | 6.00 to 6.60
Cc1cnc(C(=O)NC23CCC(NC(=O)COc4ccc(Cl)c(F)c4)(CC2)C[C@@H]3O)cn1 [Compound 733, N-{(2S)-4-[2-(4-chloro-3-fluorophenoxy)acetamido]-2-hydroxybicyclo[2.2.2]octan-1-yl}-5-methylpyrazine-2-carboxamide] | < 5.70
Cc1cncc(C(=O)NC23CCC(NC(=O)COc4ccc(Cl)c(F)c4)(CC2)C[C@@H]3O)n1 [Compound 734, N-{(2S)-4-[2-(4-chloro-3-fluorophenoxy)acetamido]-2-hydroxybicyclo[2.2.2]octan-1-yl}-6-methylpyrazine-2-carboxamide] | > 7.30
Cc1cnc(C(=O)NC23CCC(NC(=O)COc4ccc(Cl)c(Cl)c4)(CC2)[C@@H](O)C3)cn1 [Compound 735, N-{(3S)-4-[2-(3,4-dichlorophenoxy)acetamido]-3-hydroxybicyclo[2.2.2]octan-1-yl}-5-methylpyrazine-2-carboxamide] | > 7.30
Cc1ccncc1C(=O)NC12CC(NC(=O)COc3ccc(Cl)c(Cl)c3)(C1)C2 [Compound 736, N-{3-[2-(3,4-dichlorophenoxy)acetamido]bicyclo[1.1.1]pentan-1-yl}-4-methylpyridine-3-carboxamide] | < 5.70
Cc1cncc(C(=O)NC23CC(NC(=O)COc4ccc(Cl)c(Cl)c4)(C2)C3)n1 [Compound 737, N-{3-[2-(3,4-dichlorophenoxy)acetamido]bicyclo[1.1.1]pentan-1-yl}-6-methylpyrazine-2-carboxamide] | 6.00 to 6.60
Cc1ccncc1C(=O)NC12CC(NC(=O)COc3ccc(Cl)c(F)c3)(C1)C2 [Compound 738, N-{3-[2-(4-chloro-3-fluorophenoxy)acetamido]bicyclo[1.1.1]pentan-1-yl}-4-methylpyridine-3-carboxamide] | < 5.70
Cc1cccnc1C(=O)NC12CC(NC(=O)COc3ccc(Cl)c(Cl)c3)(C1)C2 [Compound 739, N-{3-[2-(3,4-dichlorophenoxy)acetamido]bicyclo[1.1.1]pentan-1-yl}-3-methylpyridine-2-carboxamide] | < 5.70
O=C(COc1ccc(Cl)c(Cl)c1)NC12CC(NC(=O)c3cnc(-c4ccccc4)o3)(C1)C2 [Compound 740, N-{3-[2-(3,4-dichlorophenoxy)acetamido]bicyclo[1.1.1]pentan-1-yl}-2-phenyl-1,3-oxazole-5-carboxamide] | > 7.30
O=C(COc1ccc(Cl)c(F)c1)NC12CC(NC(=O)c3ccnc(CO)c3)(C1)C2 [Compound 741, N-{3-[2-(4-chloro-3-fluorophenoxy)acetamido]bicyclo[1.1.1]pentan-1-yl}-2-(hydroxymethyl)pyridine-4-carboxamide] | < 5.70
O=C(COc1ccc2c(c1)OC(F)(F)O2)NC12CC(NC(=O)c3cnc(-c4ccccc4)o3)(C1)C2 [Compound 742, N-(3-{2-[(2,2-difluoro-2H-1,3-benzodioxol-5-yl)oxy]acetamido}bicyclo[1.1.1]pentan-1-yl)-2-phenyl-1,3-oxazole-5-carboxamide] | > 7.30
O=C(COc1ccc(F)c(F)c1)NC12CC(Nc3cncc(-c4cccnc4)n3)(C1)C2 [Compound 743, 2-(3,4-difluorophenoxy)-N-(3-{[6-(pyridin-3-yl)pyrazin-2-yl]amino}bicyclo[1.1.1]pentan-1-yl)acetamide] | < 5.70
O=C(COc1ccc(Cl)c(F)c1)NC12CC(Nc3cncc(N4CCOCC4)n3)(C1)C2 [Compound 744, 2-(4-chloro-3-fluorophenoxy)-N-(3-{[6-(morpholin-4-yl)pyrazin-2-yl]amino}bicyclo[1.1.1]pentan-1-yl)acetamide] | 6.00 to 6.60
N#Cc1cncc(NC23CC(NC(=O)COc4ccc(Cl)c(F)c4)(C2)C3)n1 [Compound 745, 2-(4-chloro-3-fluorophenoxy)-N-{3-[(6-cyanopyrazin-2-yl)amino]bicyclo[1.1.1]pentan-1-yl}acetamide] | < 5.70
O=C(COc1ccc(Cl)c(F)c1)NC12CC(NC(=O)c3cnc4[nH]ccc4c3)(C1)C2 [Compound 746, N-{3-[2-(4-chloro-3-fluorophenoxy)acetamido]bicyclo[1.1.1]pentan-1-yl}-1H-pyrrolo[2,3-b]pyridine-5-carboxamide] | 6.60 to 7.30
O=C(COc1ccc(Cl)c(F)c1)NC12CC(Nc3cncc(C(F)(F)F)n3)(C1)C2 [Compound 747, 2-(4-chloro-3-fluorophenoxy)-N-(3-{[6-(trifluoromethyl)pyrazin-2-yl]amino}bicyclo[1.1.1]pentan-1-yl)acetamide] | < 5.70
Cc1cc2ncc(C(=O)NC34CC(NC(=O)COc5ccc(Cl)c(F)c5)(C3)C4)cn2n1 [Compound 748, N-{3-[2-(4-chloro-3-fluorophenoxy)acetamido]bicyclo[1.1.1]pentan-1-yl}-2-methylpyrazolo[1,5-a]pyrimidine-6-carboxamide] | 6.00 to 6.60
O=C(COc1ccc(Cl)c(F)c1)NC12CC(NC(=O)c3ncc4ccccc4n3)(C1)C2 [Compound 749, N-{3-[2-(4-chloro-3-fluorophenoxy)acetamido]bicyclo[1.1.1]pentan-1-yl}quinazoline-2-carboxamide] | 6.60 to 7.30
